Format in all cases: cell-based
Assay [1] has as its system E. coli, LN 3164. Description: MIC susceptibility test, microdilution broth method (NCCLS), chemosensitising compound alone. Particulars: 37° C., 16 h. How it is done: Bacteria were sub-cultured on Mueller-Hinton agar plates and incubated over night at 37° C. Pre-warmed Mueller-Hinton broth was inoculated with colonies from the plate and incubated for approximately three hours to achieve a log phase culture. The log phase culture of bacteria was diluted with fresh pre-warmed medium and adjusted to a defined Optical Density (OD) at 600 nm in order to give a final assay concentration of 1×10^4 bacteria/ml medium.
Cell growth was tested using the MIC susceptibility tests by use of the microdilution broth method in accordance to the NCCLS Guidelines (NCCLS Guidelines, Methods for Dilution Antimicrobial Susceptibility Tests for Bacteria That Grow Aerobically; Approved Standard, Sixth Edition, Volume 23; Number 2). A 100% Mueller-Hinton broth and a bacterial concentration of 1×10^4/ml were used.
A log phase culture of bacteria was diluted with fresh pre-warmed medium and adjusted to a defined OD at 600 nm in order to give a final concentration of 1×10^4 bacteria/ml medium in each well. Each chemosensitising compound was added to the bacterial culture in the wells in two-fold dilutions in order to give final concentrations ranging from 8 to 500 μg/ml. Trays were incubated at 37° C. for 16 h. Minimal Inhibitory Concentration, (MIC) is defined as the lowest inhibitory concentration showing no visible growth according to the NCCLS Guidelines.
For orientation: Broth dilution looks for growth in wells or tubes with falling amounts of substance.

For a further assay, the system named is S. aureus O11.
Assay [2] concerns E. coli, LN 3164. Description: Effect of chemosensitising compounds on DR (DR ratio) with ciprofloxacin, microtiter assay. The conditions noted are these: MIC ciprofloxacin alone / MIC ciprofloxacin + chemosensitising compound at ¼ of its MIC; E. coli LN 3164. As to the method:
The effects of the chemosensitising compounds on DR were studied by the microtiter assay described above by exposing cells to 0-64 μg/ml anti-infective drug in the absence or presence of chemosensitising compound. Each experiment was repeated in tripleduplicate. MIC values represent the mean values of two separate experiments.
A log phase culture of bacteria was diluted with fresh pre-warmed medium and adjusted to a defined OD at 600 nm in order to give a final concentration of 1×10^4 bacteria/ml medium in each well. […] Anti-infective agent was added to the bacterial culture in the wells in two-fold dilutions in order to give final concentrations ranging from 0 to 64 μg/ml. Trays were incubated at 37° C. for 16 h. The DR ratio was defined as the ratio between the MIC value for anti-infective agent alone divided by the MIC for the anti-infective agent in the presence of the chemosensitising compound. This ratio represents the increase in apparent potency of the anti-infective agent caused by the chemosensitising compound, and may be expressed as
DR ratio=(MICanti-infective agent)/(MICanti-infective agent+chemosensitising compound)

The subject of assay [3] is Fluconazole Resistant Candida albicans. As to the kind of experiment: Checkerboard combination study on fungals, broth microdilution (NCCLS M27-A). The conditions noted are these: for FIC index: fluconazole with trans-clopenthixol. As to the method: The synergistic effect of Trans-clopenthixol was studied by checkerboard combination studies exposing cells to 0-256 μg/ml anti-infective agent in the absence or presence of trans-clopenthixol (0 to 8 μg/ml in two-fold dilutions). Each experiment was repeated in tripleduplicate. MIC values represent the mean values of two separate experiments.
Clinical Isolate of a Fluconazole Resistant Candida albicans from a Patient with candidemia.
The isolates were subcultured for 24 h on Sabouraud glucose agar before susceptibility testing.
Broth microdilution tests were performed according to NCCLS document M27-A (Ref: National Committee for Clinical Laboratory Standards. (1997). Reference Method for Broth Dilution Antifungal Susceptibility Testing of Yeasts: Approved Standard M27-A. NCCLS, Wayne, Pa.)
Microtitre plates were read spectrophotometrically at 530 nm, after mixing the wells by pipetting to resuspend yeast sediments.
The Fractional Inhibitory Concentration (FIC) was calculated for the anti-infective agent alone and in combination with trans-clopenthixol. The following formulae were used to calculate the FIC index:
(§1) FIC=FICchemosensitising compound+FICanti-infective agent
(§2) FICchemosensitising compound=(MICchemosensitising compound+anti-infective agent)/(MICchemosensitising compound)
FICanti-infective agent=(MICanti-infective agent+chemosensitising compound/(MICanti-infective agent)
(§3) Synergy was defined as a FIC index of <0.5.

The next assay deals with E. coli LN 3164. Description: Checkerboard combination study (FIC index). Particulars: MDR isolate. How it is done:
E. coli, LN 3164. Acr AB-ToIC MDR in vitro-selected mutant. Resistant to tetracycline, beta-lactams, fluoroquinolones, chloramphenicol and aminoglycosides.
The synergistic effect was studied by checkerboard combination studies exposing cells to 0-64 μg/ml anti-infective agent in the absence or presence of trans-flupenthixol, cis-flupenthixol or trans-clopenthixol. Each experiment was repeated in tripleduplicate. MIC values represent the mean values of two separate experiments,
A log phase culture of bacteria was diluted with fresh pre-warmed medium and adjusted to a defined OD at 600 nm in order to give a final concentration of 1×10^4 bacteria/ml medium in each well. Each chemosensitising compound was added to the bacterial culture in the wells in two-fold dilutions in order to give final concentrations ranging from 0 to 8 μg/ml. Anti-infective agent was added to the bacterial culture in the wells in two-fold dilutions in order to give final concentrations ranging from 0 to 64 μg/ml Trays were incubated at 37° C. for 16 h. Wells were assessed visually for growth. The Fractional Inhibitory Concentration (FIC) was calculated for each anti-infective agent alone and in combination with trans-flupenthixol, cis-flupenthixol or trans-clopenthixol. The following formulae were used to calculate the FIC index:
as §1, §2
FICanti-infective agent=(MICanti-infective agent+chemosensitising compound/(MICanti-Infective agent)
as §3

In the case of `OCCN1CCN(CC/C=C2\c3ccccc3Sc3ccc(Cl)cc32)CC1` [trans-clopenthixol], the MIC with E. coli, LN 3164 [1] was 16 µg/mL; in assay [3] (agent alone) it was 32 µg/mL. Also, in the assay on S. aureus O11 (1 μg of ciprofloxacin per ml (two times the MIC) in the presence of inhibitor (1 μg/ml)), the “Frequency on emergence of resistance” value is listed as <1 × 10^−10. In the assay with S. aureus O11 (inhibitor 1 μg/ml), the “decrease of the frequency of spontaneous emergence of ciprofloxacin resistance” value is reported as at least 100 fold. Also, in the assay on S. aureus O11 (inhibitor 1 μg/ml), the “toxic effect of the inhibitor on S. aureus plated in the absence of ciprofloxacin (in words)” value is “affected neither the colony-forming ability nor the colony size”. Also, the DR ratio with E. coli, LN 3164 [2] is reported as 128. The FIC index in assay [3] is reported as under 0.5; in assay [3] (listed as Trans-clopenthixol), 0.16; in the assay on E. coli LN 3164 (anti-infective agent Ciprofloxacin) it was 0.063; with E. coli LN 3164 (anti-infective agent Gentamicin) it was 0.063; with E. coli LN 3164 (anti-infective agent Piperacillin), 0.063. Further, the effective concentrations in assay [3] (in combination with an anti-fungal agent) is at most 3 µg/mL.

As a reminder, the MIC is the smallest concentration in the dilution series that meets the test's criterion for growth inhibition.

Source of the values: patent US20080318970A1, “Treatment of Infectious Diseases” (priority 2004, published 2008).
